Test results: US6559288B1, “Ninjurin” (Washington University, priority 1996, dated 2003)
Where no end group is shown, it is not given here.

How the values were obtained:
[1] = system: ninjurin-expressing Jurkat cell transfectants; assay: Inhibition by synthetic peptides of ninjurin-mediated aggregation of ninjurin-expressing Jurkat cell transfectants; type: cell-based; conditions: for inhibition of ninjurin-mediated adhesion relative to wild type peptide 6: single amino acid substitutions in residues 26 to 37, dose-dependent test
Experimental: (§1) Cell adhesion assays. […] Aggregation assays were performed using Jurkat cells (Shimizu et al., (1990) Nature 345, 250-253) stably transfected with pCMV-ninjurin or pCMVneo (nonrecombinant control). The cells were washed twice with RPMI 1640 containing 5 mM Hepes buffer, suspended to a concentration of 2×10^6 cells/ml in RPMI1640 with 10% FCS, and 100 μl of the cell suspension were added to each well of a flat-bottomed 96-well microtiter plate. The formation of aggregates was examined after 1 hr using phase contrast microscopy. […] The ninjurin positive cells were stained red with 1 mM CMTMR (5-(and-6)-(((4-chloromethyl)benzoyl)amino) tetramethylrhodamine) and control cells were stained green with 1 mM CMFTA (5-chloromethylfluoresceindiacetate) as described in the manufacturer's protocol (Molecular Probes). The cells were resuspended to 1×10^6 cells/ml, and 3 ml of the mixed cell suspension was allowed to form aggregates in 6-well culture plates. The composition of the aggregates was monitored by fluorescence microscopy.
To directly investigate whether the N-terminal extracellular hydrophilic region is responsible for the observed homophilic adhesion, partially overlapping synthetic peptides whose sequences collectively encompass the entire predicted ninjurin extracellular domain were tested for their ability to inhibit the ninjurin-mediated adhesion. Aggregation assays with the ninjurin-expressing Jurkat cell transfectants were performed, and the degree of aggregation was examined after 60 minutes by measuring the number of cells incorporated in aggregates. Peptide 2 inhibited aggregation at a concentration of 0.1 mg/ml, and aggregation was completely abolished at concentrations above 1 mg/ml. In constrast, peptides 1 and 4 had no effect on aggregation at either of these concentrations.
To further delimit the site of interaction, an additional 4 peptides (peptides 5 through 8) were tested for their ability to inhibit ninjurin-mediated aggregation (Data not shown). […] To identify the amino acids most critical for ninjurin-mediated adhesion, peptides (9-15) stretching from residue 26 to 37, each containing single amino acid mutations, were tested in the aggregation assay. The ability of each of these peptides to inhibit ninjurin-mediated adhesion in a dose-dependent manner was examined. The seven residues between prolines 27 and 35 (P27 and P35) were most important.

Jurkat cells = assay: Aggregation assay with Jurkat cells stably transfected with pCMV-ninjurin; type: cell-based
Experimental: as §1
Ninjurin mutants fail to support aggregation. […] To investigate these possibilities, Jurkat cell lines expressing ninjurin molecules containing a double mutation (Arg28 to Asn and Asn29 to Ala) in the ninjurin adhesion motif was generated. […]

DRG neurons = assay: DRG neuron/CHO cell co-culture neurite outgrowth; type: cell-based, rat; conditions: for inhibition of the neurite outgrowth promoting effect of ninjurin: peptides 0.5 mg/ml, E17 rat DRG neurons on CHO cells expressing ninjurin
Experimental: Cell culture and transfection. Chinese hamster ovary (CHO) cells were cultured in F-12 medium supplemented with 10% fetal calf serum (FCS). T cell leukemia cells (Jurkat) were grown in RPMI 1640 with 10% FCS. The expression vector pCMV-ninjurin was constructed by inserting the ninjurin cDNA into the plasmid pCMVneo (Brewer, C. B. (1994). Methods in Cell Biol. 43, 233-245). The pCMVneo or pCMV-ninjurin plasmids was transfected into CHO cells via calcium phosphate precipitation and into Jurkat cells via electroporation. Stable transfectants were selected by growth in medium containing G418 (400 μg/ml) and individual clones were isolated by limiting dilution. […] Primary cultures of neurons from dorsal root ganglia (DRG) were prepared from E17 rat embryos as previously described (Eichler et al., (1989) Brain Res 482, 340-346). Dissociated neurons were plated on confluent monolayers of either control CHO cells or CHO cell expressing ninjurin in 24-well plates. Cultures were grown in a medium which consists of 90% Eagles minimal essential medium (Gibco), 10% FCS, 20 μg/ml each of fluoro-deoxyuridine and uridine, and 50 ng/ml mouse NGF (gift from E. Johnson, Washington U.). Six hr after plating, the cells were fixed with 4% paraformaldehyde in PBS, and immunohistochemistry using anti-neurofilament H antibodies was performed. Following previously established criteria (Gennarini et al., (1991) Neuron 6, 595-606), approximately 50 neurites were chosen for measurement which each emerged from a single distinguishable cell body, were longer than the diameter of the neuronal cell body, and were identifiable over their entire length. The length of each neurite was measured after tracing them from the photomicrographs onto grided (2 mm) transparency film. Statistical analysis was performed using Sigma Plot (version 3.0). […]
Ninjurin-stimulated neurite outgrowth is mediated through the adhesion motif. […] The neuronal cultures were treated with peptides (0.5 mg/ml) corresponding to either the native or mutant sequences of the ninjurin adhesion motif, and neurite extension was monitored.

[2] = target: the molecule itself; assay: aggregation assay, Jurkat cells stably transfected with pCMV-ninjurin against pCMVneo control
Experimental: as §1, with “250–253)” for “250-253)”, “2 ×10^6” for “2×10^6”, “µl” for “μl”, “1 ×10^6” for “1×10^6”

CHO cells = assay: Aggregation assay with ninjurin transfected CHO cells; type: cell-based, Chinese hamster; conditions: counted at 15 min intervals, 37° C.
Experimental: For aggregation experiments using CHO cells, cells (ninjurin transfected and control) were harvested from confluent plates by treatment with trypsin, washed with F-12 medium, and resuspended at 1×10^6 cells/ml in F-12 with 10% FCS. Aggregation assays were performed on a rotary shaker at 80 rpm. Quantitation of aggregate formation was monitored at 15 min intervals by counting the number of particles using a hemocytometer (Takeichi, M. (1977). J. Cell. Biol. 75, 464-474). The extent of the aggregate formation is inversely proportional to the number of particles, and was determined by calculating an index Nt/No, where Nt and No were the total particle numbers at incubation times t and 0, respectively (Takeichi, 1977). All of the aggregation experiments were performed at 37° C.

[3] = ninjurin-expressing Jurkat transfectants, aggregation examined after 60 minutes

Q: Which “inhibition of ninjurin-mediated adhesion relative to wild type peptide 6” value [1] does the source give for “Peptide 14: residues 26 to 37 with substitution of Asn33 for Leu33 (SEQ ID NO:19) (PPRWGLRLRPIN; Rat)” here?
A: Its value is “more effective”.

Q: And the “inhibition of ninjurin-mediated adhesion relative to wild type peptide 6” value ([1]; listed as Asn-33 to Leu33)?
A: Its value is “greater inhibitory activity than wild type”.

Q: With “10: residues 26 to 37 with substitution of Trp29 for Ala29 (SEQ ID NO:15) (PPRAGLRNRPIN; Rat) [Peptide 10]” as the molecule, how does the “inhibition of ninjurin-mediated adhesion relative to wild type peptide 6” value [1] read?
A: The value was “less active”.

Q: How did the “inhibition of ninjurin-mediated adhesion relative to wild type peptide 6” value [1] turn out when “12: residues 26 to 37 with substitution of Leu31 to Asn31 (SEQ ID NO:17) (PPRWGNRNRPIN; Rat) [Peptide 12]” was run?
A: Its value is “did not exhibit altered inhibition”.

Q: Which “aggregate formation in the presence of EDTA” value (Jurkat cells; ninjurin-expressing Jurkat cells, 1 mM EDTA) does the source give for `O=C(O)CN(CCN(CC(=O)O)CC(=O)O)CC(=O)O` [EDTA, reference compound] here?
A: Its value is “no aggregates were detected”.

Q: For PPRWGLRNRPIN [Peptide 6], which “inhibitory activity on ninjurin-mediated aggregation compared with other peptides” value [1] is on record?
A: Its value is “comparable to peptides 2 or 3”.

Q: And the “concentration at which aggregation was completely abolished” value [1, 3]?
A: The value was “above 2 mg/ml”.

Q: And the “concentration at which aggregation was inhibited” value [1, 3]?
A: Its value is “higher than 0.4 mg/ml”.

Q: And the “inhibition of the neurite outgrowth promoting effect of ninjurin” value (DRG neurons)?
A: The value was “inhibited”.

Q: “11: residues 26 to 37 with substitution of Gly29 to Ala29 (SEQ ID NO:16) (PPRWALRNRPIN; Rat) [Peptide 11]” was tested. Which “inhibition of ninjurin-mediated adhesion relative to wild type peptide 6” value [1] did it give?
A: Its value is “did not exhibit altered inhibition”.

Q: “9: residues 26 to 37 with substitution of Arg28 to Asn28 (SEQ ID NO:14) (PPNWGLRNRPIN; Rat) [Peptide 9]” was tested. Which “inhibition of ninjurin-mediated adhesion relative to wild type peptide 6” value [1] did it give?
A: Its value is “less active”.

Q: With “peptide containing a mutation in this sequence: peptide with a mutant sequence of the ninjurin adhesion motif; which mutation is not stated (PPRWGLRNRPIN; Rat)” as the molecule, how does the “inhibition of the neurite outgrowth promoting effect of ninjurin” value (DRG neurons) read?
A: The value was “no significant inhibitory effect”.

Q: For “15: residues 26 to 37 with substitution of Arg34 for Asn34 (SEQ ID NO:20) (PPRWGLRNNPIN; Rat) [Peptide 15]”, which “inhibition of ninjurin-mediated adhesion relative to wild type peptide 6” value [1] is on record?
A: Its value is “less active”.

Q: “13: residues 26 to 37 with substitution of Arg32 for Asn32 (SEQ ID NO:18) (PPRWGLNNRPIN; Rat) [Peptide 13]” was tested. Which “inhibition of ninjurin-mediated adhesion relative to wild type peptide 6” value [1] did it give?
A: The value was “less active”.

B1: rat ninjurin (other)
chain: MDPGTEEYELNGDLRPGSPGSPDASPPRWGLRNRPINVNHYANKKSAAESMLDIALLMANASQLKAVVEQGNEFAFFVPLVVLISISLVLQIGVGVLLIFLVKYDLNNPAKHAKLDFLNNLATGLVFIIVVVNIFITAFGVQKPVMDVAPRQ
notes: Full-length rat ninjurin (152 amino acids) expressed from pCMV-ninjurin in stably transfected Jurkat or CHO cells; In protein blots and immunoprecipitations it came from cell or tissue lysates; also called rat ninjurin 1; Nerve Injury Induced protein
Q: Does B1 bind [2]?
A: Result: binds

B2: ninjurin: Nerve Injury Induced protein, 152 amino acids, rat (SEQ ID NO:4), expressed on transfected cells (protein)
chain: B1 chain
modifications: Rat
Q: With B2 as the molecule, how does the aggregate formation (Jurkat cells; transfected Jurkat cells, after 1 hr) read?
A: Its aggregate formation is “formation of large aggregates”.

Q: And the “number of particles (aggregate formation)” value (CHO cells)?
A: Its value is “decrease in the number of particles with time”.

Q: And the average neurite length (DRG neurons; neurons grown for 6 hr on CHO cells expressing ninjurin, approximately 50 neurons)?
A: The average neurite length was 569±134 μm.
